In patent US20230227484A1, “PYRIMIDINE COMPOUND AS AXL INHIBITOR” (NANJING CHIA TAI TIANQING PHARMACEUTICAL CO., LTD., priority 2020, published 2023):

Molecular target: T1, AXL kinase (Homo sapiens, UniProt P30530)
T1 construct: purchased Carna 08-107
T1 sequence (P30530 473-894 limits assumed): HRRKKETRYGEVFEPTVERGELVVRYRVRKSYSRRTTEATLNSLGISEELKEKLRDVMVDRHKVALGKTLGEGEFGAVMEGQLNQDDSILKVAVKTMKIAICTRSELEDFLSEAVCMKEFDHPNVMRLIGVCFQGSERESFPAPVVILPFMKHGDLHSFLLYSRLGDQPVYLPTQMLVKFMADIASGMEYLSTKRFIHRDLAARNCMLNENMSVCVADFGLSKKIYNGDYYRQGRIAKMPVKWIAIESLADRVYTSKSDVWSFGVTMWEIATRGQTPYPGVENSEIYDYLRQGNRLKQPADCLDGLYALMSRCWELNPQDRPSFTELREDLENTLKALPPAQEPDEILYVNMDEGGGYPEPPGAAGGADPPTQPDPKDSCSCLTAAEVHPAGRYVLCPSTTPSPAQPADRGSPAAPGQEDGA
Assay: Inhibitory activity of compound against AXL kinase (HTRF KinEASE)
Format: biochemical
Conditions: AXL enzyme (Carna, 08-107), ATP 15 μM; "<" means below detection limit of the test
Protocol: a) AXL enzyme (Carna, 08-107) configuration and addition: a 1×enzyme buffer (200 μL of Enzymatic buffer kinase 5×, 10 μL of 500 mM MgCl2, 10 μL of 100 mM DTT and 6.26 μL of 2500 nM SEB are added with […] of H2O, and prepared into 1 ml of 1× enzyme buffer) is used. AXL enzyme is diluted from 33.33 ng/uL to 0.027 ng/μL (1.67×, final conc.=0.016 ng/uL), a BioTek (MultiFlo FX) automatic liquid dispenser is used, and 6 μL of enzyme solution having a 1.67-fold final concentration is added respectively to compound wells and positive control wells; and 6 μL of 1×Enzymatic buffer is added to negative control wells.
b) Compound preparation and addition: the compounds and positive drugs prepared in the examples are diluted from 10 mM to 100 μM by DMSO, and titrated with a compound titrator (Tecan, D300e). The titrated solution is automatically sprayed by the titrator to each well to reach a required concentration, wherein the first concentration is 1 μM, and after ½ log dilution, a total of 8 concentrations are obtained. The resulting mixture is centrifuged at 2500 rpm for 30 s and incubated at room temperature for 15 min.
c) Preparation and addition of ATP and substrate: ATP (Sigma, A7699) is diluted with 1× enzyme buffer from 10 mM to 75 μM (5×), and the final concentration is 15 μM; the substrate TK Substrate 3-biotin (Cisbio, 61TK0BLC) is diluted with 1× enzyme buffer from 500 μM to 5 μM (5×), andthe final concentration is […]; ATP and the substrate are mixed in equal volume to obtain a mixed solution; the mixed solution is added to each well at 4 μL by using a BioTek automatic dispenser; centrifuged at 2500 rpm for 30 s, and reacted at 25° C. for 45 min.
d) Pirparation and addition of detection reagent: Streptavidin-XL665 (Cisbio, 610SAXLG) is diluted with HTRF KinEASE detection buffer (cisbio) from 16.67 μM to 250 nM (4×), and the final concentration is 62.5 nM; TK Antibody-Cryptate (Cisbio) is diluted with HTRF KinEASE detection buffer (cisbio) from 100× to 5×, and the final concentration is 1×; XL665 and Antibody are mixed in equal volume; the mixed solution is added to each well at 10 μL by using the BioTek automatic dispenser, centrifuged at 2500 rpm for 30 s, and reacted at 25° C. for 1 h. After the reaction is completed, the resulting product is detected by a multi-function plate reader HTR1p
GraphPad Prism 5 software log (inhibitor) vs. response-Variable slope is used to fit a dose-response curve to obtain the IC50 value of the compound to the inhibition of AXL kinase.
The calculation formula of the inhibition rate is as follows: […]

Row | SMILES | IC50 [nM]
1 | CNC(=O)c1cccnc1Nc1nc(Nc2ccc3c(c2)CC[C@@H](N2CCCC2)CC3)ncc1Cl [Example 21, (S)-2-((5-chloro-2-((7-(pyrrolidin-1-yl)-6,7,8,9-tetrahydro-5H-benzo[7]annulen-2-yl)amino)pyrimidin-4-yl)amino)-N-methylnicotinamide] | 6.53
2 | CNC(=O)c1c(Nc2nc(Nc3ccc4c(c3)CC[C@@H](N3CCCC3)CC4)ncc2Cl)cc[nH]c1=O [Example 42, (S)-4-((5-chloro-2-((7-(pyrrolidin-1-yl)-6,7,8,9-tetrahydro-5H-benzo[7]annulen-2-yl)amino)pyrimidin-4-yl)amino)-N-methyl-2-oxo-1,2-dihydropyridine-3-carboxamide] | 14.6
3 | CN(C)S(=O)(=O)c1ccc(Nc2nc(Nc3ccc4c(c3)CC[C@@H](N3CCCC3)CC4)ncc2Cl)cc1 [Example 3, (S)-4-((5-chloro-2-((7-(pyrrolidin-1-yl)-6,7,8,9-tetrahydro-5H-benzo[7]annulen-2-yl)amino)pyrimidin-4-yl)amino)-N,N-dimethyl benzenesulfonamide] | 23.6
4 | CN(C)S(=O)(=O)c1cccc(Nc2nc(Nc3ccc4c(c3)CC[C@@H](N3CCCC3)CC4)ncc2Cl)c1 [Example 2, (S)-3-((5-chloro-2-((7-(pyrrolidin-1-yl)-6,7,8,9-tetrahydro-5H-benzo[7]annulen-2-yl)amino)pyrimidin-4-yl)amino)-N,N-dimethyl benzenesulfonamide] | 13.4
5 | COC(=O)c1ccncc1Nc1nc(Nc2ccc3c(c2)CC[C@@H](N2CCCC2)CC3)ncc1Cl [Example 27] | 19
6 | Cc1cnc(-c2ccccc2Nc2nc(Nc3ccc4c(c3)CC[C@@H](N3CCCC3)CC4)ncc2Cl)o1 [Example 17, (S)-5-chloro-N^4-(2-(5-methyloxazol-2-yl)phenyl)-N^2-(7-(pyrrolidin-1-yl)-6,7,8,9-tetrahydro-5H-benzo[7]annulen-2-yl)pyrimidine-2,4-diamine] | 27.9
7 | Clc1cnc(Nc2ccc3c(c2)CC[C@@H](N2CCCC2)CC3)nc1Nc1cccc2c1OCO2 [Example 9, (S)-4-(benzo[d][1,3]dioxo-4-yl)-5-chloro-2-(7-(pyrrolidin-1-yl)-6,7,8,9-tetrahydro-5H-benzo[7]annulen-2-yl)pyrimidine-2,4-diamine] | 21.9
8 | CNC(=O)c1cc(C(F)(F)F)ccc1Nc1nc(Nc2ccc3c(c2)CC[C@@H](N2CCCC2)CC3)ncc1Cl [Example 35, (S)-2-((5-chloro-2-((7-(pyrrolidin-1-yl)-6,7,8,9-tetrahydro-5H-benzo[7]annulen-2-yl)amino)pyrimidin-4-yl)amino)-N-methyl-5-(trifluoromethyl)benzamide] | 1.21
9 | CNC(=O)c1c(Nc2nc(Nc3ccc4c(c3)CC[C@@H](N3CCCC3)CC4)ncc2Cl)ccnc1OC [Example 44, (S)-4-((5-chloro-2-((7-(pyrrolidin-1-yl)-6,7,8,9-tetrahydro-5H-benzo[7]annulen-2-yl)amino)pyrimidin-4-yl)amino)-2-methoxyl-N-methylnicotinamide] | 1.47
10 | CC(C)Oc1ccccc1Nc1nc(Nc2ccc3c(c2)CC[C@@H](N2CCCC2)CC3)ncc1Cl [Example 8, (S)-5-chloro-4-(2-isopropoxyl)anilino-2-(7-(pyrrolidin-1-yl)-6,7,8,9-tetrahydro-5H-benzo[7]annulen-2-yl)pyrimidine] | 8.28
11 | COCCNC(=O)c1ccccc1Nc1nc(Nc2ccc3c(c2)CC[C@@H](N2CCCC2)CC3)ncc1Cl [Example 38, (S)-2-((5-chloro-2-((7-(pyrrolidin-1-yl)-6,7,8,9-tetrahydro-5H-benzo[7]annulen-2-yl)amino)pyrimidin-4-yl)amino)-N-(2-methoxyethyl)benzamide] | 6.24
12 | O=S(=O)(c1cccc(Nc2nc(Nc3ccc4c(c3)CC[C@@H](N3CCCC3)CC4)ncc2Cl)c1)N1CCCC1 [Example 5, (S)-5-chloro-N^2-(7-(pyrrolidin-1-yl)-6,7,8,9-tetrahydro-5H-benzo[7]annulen-2-yl)-N^4-(3-(pyrrolidin-1-ylsulfo)phenyl)pyrimidine-2,4-diamine] | 20.7
13 | CNC(=O)c1cnc(OC)cc1Nc1nc(Nc2ccc3c(c2)CC[C@@H](N2CCCC2)CC3)ncc1Cl [Example 43, (S)-4-((5-chloro-2-((7-(pyrrolidin-1-yl)-6,7,8,9-tetrahydro-5H-benzo[7]annulen-2-yl)amino)pyrimidin-4-yl)amino)-6-methoxyl-N-methylnicotinamide] | 9.87

More lines, now with the values ahead:

Row | IC50 [nM] | SMILES
14 | 2.41 | CP(C)(=O)c1cc(C2CC2)ccc1Nc1nc(Nc2ccc3c(c2)CC[C@@H](N2CCCC2)CC3)ncc1Cl [Example 112, (S)-(2-((5-chloro-2-((7-(pyrrolidin-1-yl)-6,7,8,9-tetrahydro-5H-benzo[7]annulen-2-yl)amino)pyrimidin-4-yl)amino)-5-cyclopropylphenyl)dimethyl phosphine oxide]
15 | 1.78 | Cc1cc(Cl)cc(Nc2nc(Nc3ccc4c(c3)CC[C@@H](N3CCCC3)CC4)ncc2Cl)c1P(C)(C)=O [Example 117, (S)-(4-chloro-2-((5-chloro-2-((7-(pyrrolidin-1-yl)-6,7,8,9-tetrahydro-5H-benzoannulen-2-yl)amino)pyrimidin-4-yl)amino)-6-methylphenyl)dimethyl phosphine oxide]
16 | 1.82 | CP(C)(=O)c1cc(OC2CC2)ccc1Nc1nc(Nc2ccc3c(c2)CC[C@@H](N2CCCC2)CC3)ncc1Cl [Example 128, (S)-(2-((5-chloro-2-((7-(pyrrolidin-1-yl)-6,7,8,9-tetrahydro-5H-benzo[7]annulen-2-yl)amino)pyrimidin-4-yl)amino)-5-cyclopropoxyphenyl)dimethyl phosphine oxide]
17 | 2.04 | [2H]C([2H])([2H])P(=O)(c1ccccc1Nc1nc(Nc2ccc3c(c2)CC[C@@H](N2CCCC2)CC3)ncc1Cl)C([2H])([2H])[2H] [Example 56, (S)-(2-((5-chloro-2-((7-(pyrrolidin-1-yl)-6,7,8,9-tetrahydro-5H-benzo[7]annulen-2-yl)amino)pyrimidin-4-yl)amino)phenyl)bis(methyl-d3) phosphine oxide]
18 | 96.8 | COCc1ccc(Nc2nc(Nc3ccc4c(c3)CCC(N3CC5CC3C5)CC4)ncc2Cl)c(P(C)(C)=O)c1 (single isomer, unassigned) [Example 116 Isomer 116-2, (2-((2-((7-(2-azabicyclo[2.1.1]hexan-2-yl)-6,7,8,9-tetrahydro-5H-benzo[7]annulen-2-yl)amino)-5-chloropyrimidin-4-yl)amino)-5-(methoxymethyl)phenyl)dimethyl phosphine oxide]
19 | 12.3 | Cc1ccc(P(C)(C)=O)c(Nc2nc(Nc3ccc4c(c3)CC[C@@H](N3CCCC3)CC4)ncc2Cl)c1 [Example 130, (S)-(2-((5-chloro-2-((7-(pyrrolidin-1-yl)-6,7,8,9-tetrahydro-5H-benzo[7]annulen-2-yl)amino)pyrimidin-4-yl)amino)-4-methylphenyl)dimethyl phosphine oxide]
20 | 9.68 | Cc1cc(Nc2nc(Nc3ccc4c(c3)CC[C@@H](N3CCCC3)CC4)ncc2Cl)c(P(C)(C)=O)cc1F [Example 129, (S)-(2-((5-chloro-2-((7-(pyrrolidin-1-yl)-6,7,8,9-tetrahydro-5H-benzo[7]annulen-2-yl)amino)pyrimidin-4-yl)amino)-5-fluoro-4-methylphenyl)dimethyl phosphine oxide]
21 | 0.42 | CNC(=O)c1c(Nc2nc(Nc3ccc4c(c3)CC[C@@H](N3CCCC3)CC4)ncc2Cl)ccc2nccnc12 [Example 48, (S)-6-((5-chloro-2-((7-(pyrrolidin-1-yl)-6,7,8,9-tetrahydro-5H-benzo[7]annulen-2-yl)amino)pyrimidin-4-yl)amino)-N-methylquinoxaline-5-carboxamide]
